Experimental data reported in US20170196797A1 (AMOREPACIFIC CORPORATION, priority 2014, published 2017).

What was measured:
collagenase = assay: Collagenase expression suppression in human fibroblasts; format: cell-based; conditions: 10^−4 M, 24 hours, untreated group = 100
Method: Tocopherol and EGCG are known to prevent skin aging by regenerating epidermal cells.
Human fibroblasts were added to a 96-well microtiter plate containing Dulbecco's modified Eagle's medium (DMEM) supplemented with 2.5 wt % fetal bovine serum, with 5,000 cells/well, and cultured to about 90% confluence.
The production of collagenase in the cell culture was measured using a collagenase measuring system (Amersham Pharmacia, USA). First, the harvested cell culture was added to a 96-well plate having primary collagenase antibodies applied uniformly thereto and was incubated for 3 hours in a constant-temperature bath. 3 hours later, after adding chromophore-conjugated secondary collagen antibodies to the 96-well plate, incubation was performed for 15 minutes. 15 minutes later, a substance inducing color development was added and color development was induced at room temperature for 15 minutes. […] The intensity of the yellow color varied depending on the degree of progress of the reaction.
A cell culture obtained without treating with the composition was used as a control group. That is to say, the expression level of collagenase in the group treated with the test substance was calculated relative to that of the untreated group as 100.
Collagenase expression level(%)=Absorbance of group treated with test substance/Absorbance of control group×100 [Equation 1]

MCP-1 = MCP-1 ELISA in retinoic acid-treated normal human skin keratinocytes; format: cell-based; conditions: NHEKs, 24 hours
Method: One day before the testing, normal human skin keratinocytes (NHEKs, Lonza) were added to a 96-well plate with 5×10^4 cells/well and cultured in a 5% CO2 incubator at 37° C. for 24 hours. 24 hours later, the cells were washed with PBS twice and the cell culture medium was replaced with a serum-free keratinocyte basement medium (KBM). […] The retinoic acid is known to promote the secretion of the inflammatory cytokine MCP (monocyte chemoattractant protein-1) as a skin irritant. […] For the ELISA, the method provided by BD Science was used.

Mel-Ab cells = assay: Melanin production inhibition in Mel-Ab cells (Dooley's method); format: cell-based, mouse; conditions: 10 ppm, added for 3 consecutive days
Method: Melanocytes derived from C57BL/6 mouse (Mel-Ab cells) (Dooley, T. P. et al, Skin Pharmacol, 7, pp. 188-200) were cultured in DMEM supplemented with 10% fetal bovine serum, 100 nM 12-O-tetradecanoylphorbol-13-acetate and 1 nM cholera toxin under the condition of 37° C. and 5% CO2. The cultured Mel-Ab cells were detached with 0.25% trypsin-EDTA and cultured in a 24-well plate with a concentration of 10^5 cells/well. During the culturing, each test substance was added for 3 consecutive days starting from day 2. […] After removing the medium, the cells were washed with phosphate-buffered saline (PBS) and lysed with 1 N sodium hydroxide. After measuring absorbance at 400 nm, the melanin production inhibition was calculated according to Equation 2.
Melanin production inhibition(%)=100−(Absorbance of group treated with test substance/Absorbance of control group×100) [Equation 2]

[1] = Skin irritation test by sensitive panels; format: in vivo, human; conditions: scale 0-3.0
Description: 0.5-1.0: Slight irritation.
1.1-2.0: Moderate irritation.
2.1-3.0: Severe irritation.

[2] = DPPH method, antioxidative effect; format: biochemical; conditions: sample concentration at which DPPH absorbance (540 nm) decreased by 50%; 37° C., 30 minutes
Method: The DPPH method evaluates antioxidative effect by measuring and comparing the effect of suppressing DPPH oxidation based on the change in absorbance caused by the reduction of DPPH. […] After incubation at 37° C. for 30 minutes, absorbance was measured at 540 nm. The analysis result is shown in Table 3, where IC50 means the sample concentration when the absorbance was decreased by 50% due to the added sample.

[3] = 0.5 mL on cheek, 15 sensitive panels

Compound: O=C(O[C@@H]1Cc2c(O)cc(O)cc2O[C@@H]1c1cc(O)c(O)c(O)c1)c1cc(O)c(O)c(O)c1 [EGCG]
- Collagenase expression level (collagenase): 59%

Compound: C[C@]12CCC(=O)C=C1CC[C@@H]1[C@@H]2[C@@H](O)C[C@@]2(C)[C@H]1CC[C@]2(O)C(=O)CO [Hydrocortisone, hydrocortisone]
- MCP-1 secretion (MCP-1; 100 nM + retinoic acid 10 μM): 448.3 pg/mL

Compound: Oc1ccc(O)cc1 [Hydroquinone, hydroquinone]
- Melanin production inhibition (Mel-Ab cells): 57.5%

Compound: O=c1cc(CO)occ1O [Kojic acid, kojic acid]
- Flushing score [1, 3]: 0.43 points
- Pricking score [1, 3]: 0.81 points
- Mean irritation score ([1]; mean of pricking and flushing): 0.62 points

Compound: CC1=C(/C=C/C(C)=C/C=C/C(C)=C/C(=O)O)C(C)(C)CCC1 [Retinoic acid, retinoic acid]
- MCP-1 secretion (MCP-1; retinoic acid 10 μM alone, untreated group 527.3): 804.5 pg/mL

Compound: Cc1c(C)c2c(c(C)c1O)CCC(C)(C(=O)O)O2 (stereo not drawn) [Trolox]
- IC50 [2]: 57 ppm

Compound: tocopherol
- Collagenase expression level (collagenase): 81%
